Like-named read-outs stand apart in the source and are kept apart here.
Key:
Experiment in all cases: SelectScreen Kinase Profiling, single point inhibition and IC50 for off-target kinases
Format in all cases: biochemical
off-target kinases [1] = target: off-target kinases (Homo sapiens, UniProt O96013); details: PAK4, ATP Km app, ZLYTE
off-target kinases [2] = target: off-target kinases (Homo sapiens, UniProt Q92918); details: MAP4K1 (HPK1), LanthaScreen Binding
off-target kinases [3] = target: off-target kinases (Homo sapiens, UniProt P42685); details: FRK (PTK5), ZLYTE, ATP Km app
Chain of off-target kinases (Homo sapiens, UniProt P42685) (P42685 whole entry): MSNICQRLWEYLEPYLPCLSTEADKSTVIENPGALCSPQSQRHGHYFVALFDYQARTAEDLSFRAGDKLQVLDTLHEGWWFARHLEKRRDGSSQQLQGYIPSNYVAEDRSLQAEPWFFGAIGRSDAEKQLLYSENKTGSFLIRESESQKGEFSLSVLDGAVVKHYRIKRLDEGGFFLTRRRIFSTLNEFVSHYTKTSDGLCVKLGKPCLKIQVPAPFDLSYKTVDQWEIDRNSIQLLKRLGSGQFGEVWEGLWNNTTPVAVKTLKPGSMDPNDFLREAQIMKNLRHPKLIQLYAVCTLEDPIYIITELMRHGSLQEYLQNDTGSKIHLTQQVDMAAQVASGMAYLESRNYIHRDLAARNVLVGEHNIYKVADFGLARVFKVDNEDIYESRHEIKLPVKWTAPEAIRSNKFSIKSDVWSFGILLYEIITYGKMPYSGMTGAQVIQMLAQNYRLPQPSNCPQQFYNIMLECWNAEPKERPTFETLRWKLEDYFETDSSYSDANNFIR

off-target kinases [4] = target: off-target kinases (Homo sapiens, UniProt P41279); details: MAP3K8 (COT), ZLYTE, ATP 100
Chain of off-target kinases (Homo sapiens, UniProt P41279) (P41279 whole entry): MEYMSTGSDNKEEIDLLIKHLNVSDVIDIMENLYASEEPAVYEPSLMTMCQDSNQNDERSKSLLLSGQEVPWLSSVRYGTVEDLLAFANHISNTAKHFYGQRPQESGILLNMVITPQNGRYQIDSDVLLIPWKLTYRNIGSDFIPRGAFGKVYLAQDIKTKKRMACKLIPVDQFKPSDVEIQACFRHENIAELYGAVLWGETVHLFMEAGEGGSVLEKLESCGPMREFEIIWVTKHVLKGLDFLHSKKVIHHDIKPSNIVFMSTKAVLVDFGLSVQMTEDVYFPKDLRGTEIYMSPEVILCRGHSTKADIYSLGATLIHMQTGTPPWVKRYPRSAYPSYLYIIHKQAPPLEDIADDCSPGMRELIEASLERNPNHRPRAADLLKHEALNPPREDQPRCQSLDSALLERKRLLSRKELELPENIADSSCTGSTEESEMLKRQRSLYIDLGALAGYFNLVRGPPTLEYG

off-target kinases [5] = target: off-target kinases (Homo sapiens, UniProt P23443); details: RPS6KB1 (p70S6K), ZLYTE, ATP Km app
Chain of off-target kinases (Homo sapiens, UniProt P23443) (P23443 whole entry): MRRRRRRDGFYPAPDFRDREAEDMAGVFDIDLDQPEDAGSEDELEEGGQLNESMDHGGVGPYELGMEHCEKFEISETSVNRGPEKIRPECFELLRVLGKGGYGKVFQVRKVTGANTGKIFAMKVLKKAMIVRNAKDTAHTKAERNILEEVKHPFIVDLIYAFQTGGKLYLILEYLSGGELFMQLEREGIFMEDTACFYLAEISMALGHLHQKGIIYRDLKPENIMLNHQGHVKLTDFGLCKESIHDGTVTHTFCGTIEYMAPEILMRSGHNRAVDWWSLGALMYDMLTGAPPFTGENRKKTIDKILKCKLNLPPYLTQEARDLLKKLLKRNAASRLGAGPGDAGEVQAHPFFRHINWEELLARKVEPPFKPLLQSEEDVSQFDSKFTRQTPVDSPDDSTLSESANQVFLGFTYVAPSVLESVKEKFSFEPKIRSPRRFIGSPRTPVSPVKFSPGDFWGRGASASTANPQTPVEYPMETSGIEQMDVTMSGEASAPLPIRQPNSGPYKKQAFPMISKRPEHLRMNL

off-target kinases [6] = target: off-target kinases (Homo sapiens, UniProt P07949, M918T); details: RET M918T, mutant y, LanthaScreen Binding
Chain of off-target kinases (Homo sapiens, UniProt P07949, M918T) (P07949 29-1114 M918T): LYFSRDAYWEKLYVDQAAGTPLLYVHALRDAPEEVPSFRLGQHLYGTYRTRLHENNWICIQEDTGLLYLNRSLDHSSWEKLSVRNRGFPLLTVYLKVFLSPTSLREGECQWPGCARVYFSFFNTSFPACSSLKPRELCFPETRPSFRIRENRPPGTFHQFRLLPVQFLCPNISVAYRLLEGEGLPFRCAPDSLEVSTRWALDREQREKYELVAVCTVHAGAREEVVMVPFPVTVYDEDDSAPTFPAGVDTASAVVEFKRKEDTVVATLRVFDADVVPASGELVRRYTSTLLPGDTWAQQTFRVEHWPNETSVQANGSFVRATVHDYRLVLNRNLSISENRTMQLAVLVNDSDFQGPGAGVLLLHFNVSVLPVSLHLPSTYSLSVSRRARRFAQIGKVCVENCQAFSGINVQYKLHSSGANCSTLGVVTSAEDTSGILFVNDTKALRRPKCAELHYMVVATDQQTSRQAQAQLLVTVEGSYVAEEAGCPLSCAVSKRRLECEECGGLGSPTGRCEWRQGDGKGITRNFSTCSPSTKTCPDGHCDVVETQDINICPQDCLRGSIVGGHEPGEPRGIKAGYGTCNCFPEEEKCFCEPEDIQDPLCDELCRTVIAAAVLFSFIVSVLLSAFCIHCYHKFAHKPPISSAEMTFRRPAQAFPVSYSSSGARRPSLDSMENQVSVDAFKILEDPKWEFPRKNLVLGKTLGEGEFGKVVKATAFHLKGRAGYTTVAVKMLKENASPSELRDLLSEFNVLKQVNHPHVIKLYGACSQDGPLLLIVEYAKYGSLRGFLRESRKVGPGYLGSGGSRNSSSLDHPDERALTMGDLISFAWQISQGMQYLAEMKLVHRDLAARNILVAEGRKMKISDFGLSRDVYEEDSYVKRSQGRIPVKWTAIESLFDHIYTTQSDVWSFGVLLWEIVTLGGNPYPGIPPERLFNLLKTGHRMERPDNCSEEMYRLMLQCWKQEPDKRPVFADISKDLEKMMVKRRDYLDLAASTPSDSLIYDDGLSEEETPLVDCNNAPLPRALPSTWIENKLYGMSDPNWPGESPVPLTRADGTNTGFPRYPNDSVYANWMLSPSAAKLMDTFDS

off-target kinases [7] = target: T1, off-target kinases (Homo sapiens, UniProt Q12851); details: MAP4K2 (GCK), ZLYTE, ATP Km app
T1 sequence (Q12851 1-820): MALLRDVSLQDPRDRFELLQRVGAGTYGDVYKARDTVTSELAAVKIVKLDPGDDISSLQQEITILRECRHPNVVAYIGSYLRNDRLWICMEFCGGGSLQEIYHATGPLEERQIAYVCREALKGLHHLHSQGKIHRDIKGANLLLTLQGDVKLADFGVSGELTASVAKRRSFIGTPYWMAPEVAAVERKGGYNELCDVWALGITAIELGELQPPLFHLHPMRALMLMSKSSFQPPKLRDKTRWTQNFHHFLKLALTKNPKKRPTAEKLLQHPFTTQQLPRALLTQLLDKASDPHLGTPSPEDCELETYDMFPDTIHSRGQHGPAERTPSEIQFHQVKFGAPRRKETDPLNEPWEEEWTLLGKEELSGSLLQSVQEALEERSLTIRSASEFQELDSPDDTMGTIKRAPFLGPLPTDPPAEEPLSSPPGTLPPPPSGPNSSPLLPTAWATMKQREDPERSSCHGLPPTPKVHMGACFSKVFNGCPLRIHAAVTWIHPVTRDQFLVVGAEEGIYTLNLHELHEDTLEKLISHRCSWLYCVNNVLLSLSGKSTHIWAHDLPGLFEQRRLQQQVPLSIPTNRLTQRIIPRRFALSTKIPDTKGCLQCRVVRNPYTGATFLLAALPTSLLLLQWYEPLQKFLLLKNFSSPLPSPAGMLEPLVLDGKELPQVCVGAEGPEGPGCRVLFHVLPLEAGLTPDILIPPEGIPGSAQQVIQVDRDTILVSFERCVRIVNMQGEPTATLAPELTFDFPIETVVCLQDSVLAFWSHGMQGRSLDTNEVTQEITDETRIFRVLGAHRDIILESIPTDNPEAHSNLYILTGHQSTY

off-target kinases [8] = target: off-target kinases (Homo sapiens, UniProt P54646)
Chain of off-target kinases (Homo sapiens, UniProt P54646) (P54646 whole entry): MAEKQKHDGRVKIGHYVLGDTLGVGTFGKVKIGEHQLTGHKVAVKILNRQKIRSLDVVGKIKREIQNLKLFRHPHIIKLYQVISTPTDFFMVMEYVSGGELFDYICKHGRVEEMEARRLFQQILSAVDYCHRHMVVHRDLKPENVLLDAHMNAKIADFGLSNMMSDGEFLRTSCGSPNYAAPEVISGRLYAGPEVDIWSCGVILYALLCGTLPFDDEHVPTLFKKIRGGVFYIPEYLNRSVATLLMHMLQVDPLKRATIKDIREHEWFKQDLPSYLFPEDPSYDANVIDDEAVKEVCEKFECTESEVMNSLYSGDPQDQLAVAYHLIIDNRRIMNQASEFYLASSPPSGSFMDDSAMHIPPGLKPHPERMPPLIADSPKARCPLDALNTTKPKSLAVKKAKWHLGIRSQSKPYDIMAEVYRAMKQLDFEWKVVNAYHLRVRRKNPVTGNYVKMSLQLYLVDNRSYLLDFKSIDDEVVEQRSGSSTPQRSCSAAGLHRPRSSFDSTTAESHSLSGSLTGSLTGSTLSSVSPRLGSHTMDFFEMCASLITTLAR

Chain of off-target kinases (Homo sapiens, UniProt O96013) (O96013 whole entry): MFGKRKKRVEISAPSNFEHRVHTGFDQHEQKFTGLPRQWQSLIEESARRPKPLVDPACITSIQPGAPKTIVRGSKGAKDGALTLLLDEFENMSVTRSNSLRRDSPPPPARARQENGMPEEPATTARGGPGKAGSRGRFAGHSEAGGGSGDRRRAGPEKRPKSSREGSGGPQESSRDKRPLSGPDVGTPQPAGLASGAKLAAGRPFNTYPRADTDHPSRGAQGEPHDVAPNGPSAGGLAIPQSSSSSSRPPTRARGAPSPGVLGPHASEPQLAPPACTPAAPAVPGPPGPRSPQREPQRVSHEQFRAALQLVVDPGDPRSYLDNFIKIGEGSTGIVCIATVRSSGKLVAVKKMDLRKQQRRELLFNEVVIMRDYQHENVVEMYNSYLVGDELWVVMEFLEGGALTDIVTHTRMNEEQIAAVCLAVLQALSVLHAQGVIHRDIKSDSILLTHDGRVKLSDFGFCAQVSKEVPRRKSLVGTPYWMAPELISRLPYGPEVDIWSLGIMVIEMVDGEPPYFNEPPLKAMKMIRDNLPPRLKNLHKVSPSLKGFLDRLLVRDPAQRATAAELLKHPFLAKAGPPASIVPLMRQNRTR
Chain of off-target kinases (Homo sapiens, UniProt Q92918) (Q92918 whole entry): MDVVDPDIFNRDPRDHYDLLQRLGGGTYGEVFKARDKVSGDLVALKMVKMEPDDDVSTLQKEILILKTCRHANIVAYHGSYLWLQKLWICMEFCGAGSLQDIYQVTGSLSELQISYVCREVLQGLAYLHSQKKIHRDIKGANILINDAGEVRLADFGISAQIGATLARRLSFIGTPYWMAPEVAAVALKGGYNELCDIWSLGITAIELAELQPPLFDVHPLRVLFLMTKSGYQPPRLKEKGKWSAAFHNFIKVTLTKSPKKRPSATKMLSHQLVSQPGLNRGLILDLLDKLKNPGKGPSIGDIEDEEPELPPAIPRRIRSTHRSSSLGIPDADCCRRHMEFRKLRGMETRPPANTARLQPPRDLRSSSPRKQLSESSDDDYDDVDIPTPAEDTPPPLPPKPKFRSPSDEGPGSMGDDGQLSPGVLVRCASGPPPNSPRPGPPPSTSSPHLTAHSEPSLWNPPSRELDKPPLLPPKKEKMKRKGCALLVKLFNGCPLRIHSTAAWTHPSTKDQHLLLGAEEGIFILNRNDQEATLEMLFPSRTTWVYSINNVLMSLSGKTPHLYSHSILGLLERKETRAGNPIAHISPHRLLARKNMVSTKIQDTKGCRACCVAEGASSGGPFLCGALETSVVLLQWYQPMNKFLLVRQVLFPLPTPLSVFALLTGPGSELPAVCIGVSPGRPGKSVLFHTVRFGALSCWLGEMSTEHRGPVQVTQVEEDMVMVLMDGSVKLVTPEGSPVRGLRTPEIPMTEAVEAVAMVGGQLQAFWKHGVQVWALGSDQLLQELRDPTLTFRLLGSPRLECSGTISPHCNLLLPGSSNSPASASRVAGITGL

N#Cc1cc(-c2ncnc(Nc3ccc(N4CCN(C5COC5)CC4)cc3)n2)ccc1OC1CCOCC1 [Compound 1, 5-(4-((4-(4-(oxetan-3-yl)piperazin-1-yl)phenyl)amino)-1,3,5-triazin-2-yl)-2-((tetrahydro-2H-pyran-4-yl)oxy)benzonitrile]
inhibition (off-target kinases [1]; read-out: % Inhibition 1): 91% | inhibition (off-target kinases [1]; read-out: % Inhibition 2): 90% | inhibition (off-target kinases [1]; read-out: % Inhibition Avg): 90% | inhibition (off-target kinases [2]; read-out: % Inhibition 1): 59% | inhibition (off-target kinases [2]; read-out: % Inhibition 2): 55% | inhibition (off-target kinases [2]; read-out: % Inhibition Avg): 57% | inhibition (off-target kinases [3]; read-out: % Inhibition 1): 11% | inhibition (off-target kinases [3]; read-out: % Inhibition 2): 13% | inhibition (off-target kinases [3]; read-out: % Inhibition Avg): 12% | inhibition (off-target kinases [4]; read-out: % Inhibition 1): 19% | inhibition (off-target kinases [4]; read-out: % Inhibition 2): 11% | inhibition (off-target kinases [4]; read-out: % Inhibition Avg): 15% | inhibition (off-target kinases [5]; read-out: % Inhibition 1): 37% | inhibition (off-target kinases [5]; read-out: % Inhibition 2): 36% | inhibition (off-target kinases [5]; read-out: % Inhibition Avg): 37% | inhibition (off-target kinases [6]; read-out: % Inhibition 1): 10% | inhibition (off-target kinases [6]; read-out: % Inhibition 2): 13% | inhibition (off-target kinases [6]; read-out: % Inhibition Avg): 12% | inhibition (off-target kinases [7]; read-out: % Inhibition 1): 6% | inhibition (off-target kinases [7]; read-out: % Inhibition 2): -2% | inhibition (off-target kinases [7]; read-out: % Inhibition Avg): 2% | inhibition (off-target kinases [8]; AMPK (A2/B2/G1), LanthaScreen Binding, read-out: % Inhibition 1): 35% | inhibition (off-target kinases [8]; AMPK (A2/B2/G1), LanthaScreen Binding, read-out: % Inhibition 2): 35% | inhibition (off-target kinases [8]; AMPK (A2/B2/G1), LanthaScreen Binding, read-out: % Inhibition Avg): 35% | inhibition (off-target kinases [8]; AMPK (A2/B2/G2), LanthaScreen Binding, read-out: % Inhibition 1): 44% | inhibition (off-target kinases [8]; AMPK (A2/B2/G2), LanthaScreen Binding, read-out: % Inhibition 2): 45% | inhibition (off-target kinases [8]; AMPK (A2/B2/G2), LanthaScreen Binding, read-out: % Inhibition Avg): 45% | inhibition (off-target kinases [8]; AMPK A2/B1/G1, ATP Km app, ZLYTE, read-out: % Inhibition 1): 47% | inhibition (off-target kinases [8]; AMPK A2/B1/G1, ATP Km app, ZLYTE, read-out: % Inhibition 2): 46% | inhibition (off-target kinases [8]; AMPK A2/B1/G1, ATP Km app, ZLYTE, read-out: % Inhibition Avg): 46%

Reference: patent publication US11572590B2, “Methods for evaluating tumor cell spheroids using 3D microfluidic cell culture device” (Dana-Farber Cancer Institute, Inc., priority 2017, dated 2023)
